{"source": "ChEMBL document CHEMBL1201862", "about": "“PubChem BioAssay data set” (2004)", "test_in_all_cases": "inhibition of tumour cell growth, NCI panel, 48 h", "key": {"786-0": {"test_system": "786-0"}, "A498": {"test_system": "A498"}, "A549": {"test_system": "A549"}, "ACHN": {"test_system": "ACHN"}, "BT-549": {"test_system": "BT-549"}, "CAKI-1": {"test_system": "CAKI-1"}, "CCRF-CEM": {"test_system": "CCRF-CEM"}, "COLO 205": {"test_system": "COLO 205"}, "DU-145": {"test_system": "DU-145"}, "EKVX": {"test_system": "EKVX"}, "HCC 2998": {"test_system": "HCC 2998"}, "HCT-116": {"test_system": "HCT-116"}, "HCT-15": {"test_system": "HCT-15"}, "HOP-62": {"test_system": "HOP-62"}, "HOP-92": {"test_system": "HOP-92"}, "HT-29": {"test_system": "HT-29"}, "Hs-578T": {"test_system": "Hs-578T"}, "IGROV-1": {"test_system": "IGROV-1"}, "K562": {"test_system": "K562"}, "KM12": {"test_system": "KM12"}, "LOX IMVI": {"test_system": "LOX IMVI"}, "M14": {"test_system": "M14"}, "MCF7": {"test_system": "MCF7"}, "MDA-MB-231": {"test_system": "MDA-MB-231"}, "MDA-MB-435": {"test_system": "MDA-MB-435"}, "MOLT-4": {"test_system": "MOLT-4"}, "NCI-H23": {"test_system": "NCI-H23"}, "NCI-H460": {"test_system": "NCI-H460"}, "NCI-H522": {"test_system": "NCI-H522"}, "NCI/ADR-RES": {"test_system": "NCI/ADR-RES"}, "OVCAR-3": {"test_system": "OVCAR-3"}, "OVCAR-4": {"test_system": "OVCAR-4"}, "OVCAR-5": {"test_system": "OVCAR-5"}, "OVCAR-8": {"test_system": "OVCAR-8"}, "PC-3": {"test_system": "PC-3"}, "RXF 393": {"test_system": "RXF 393"}, "SF-268": {"test_system": "SF-268"}, "SF-295": {"test_system": "SF-295"}, "SF-539": {"test_system": "SF-539"}, "SK-MEL-28": {"test_system": "SK-MEL-28"}, "SK-MEL-2": {"test_system": "SK-MEL-2"}, "SK-MEL-5": {"test_system": "SK-MEL-5"}, "SK-OV-3": {"test_system": "SK-OV-3"}, "SN12C": {"test_system": "SN12C"}, "SNB-19": {"test_system": "SNB-19"}, "SNB-75": {"test_system": "SNB-75"}, "SW-620": {"test_system": "SW-620"}, "T47D": {"test_system": "T47D"}, "TK-10": {"test_system": "TK-10"}, "U-251": {"test_system": "U-251"}, "UACC-257": {"test_system": "UACC-257"}, "UACC-62": {"test_system": "UACC-62"}, "UO-31": {"test_system": "UO-31"}}, "note": "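Tested at 5 concentrations; 48 h exposure; 96-well plates; endpoints linearly interpolated, else capped at highest concentration. Here, GI50 denotes the concentration required for 50% inhibition of growth.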 The source made the active and inactive calls. No stated cut-off is given here; in the data, active = GI50 up to about 1.1 µM and inactive = higher.", "data": [{"compound": "CCc1c(-c2ccc(OC)cc2)oc(OC)c(C)c1=O", "values": [{"measurement": "GI50", "setting": "786-0", "result": "> 100 µM (inactive)"}, {"measurement": "GI50", "setting": "A498", "result": "68.9 µM (inactive)"}, {"measurement": "GI50", "setting": "A549", "result": "79.1 µM (inactive)"}, {"measurement": "GI50", "setting": "ACHN", "result": "42.3 µM (inactive)"}, {"measurement": "GI50", "setting": "BT-549", "result": "93.8 µM (inactive)"}, {"measurement": "GI50", "setting": "CAKI-1", "result": "99.1 µM (inactive)"}, {"measurement": "GI50", "setting": "CCRF-CEM", "result": "41 µM (inactive)"}, {"measurement": "GI50", "setting": "COLO 205", "result": "> 100 µM (inactive)"}, {"measurement": "GI50", "setting": "DU-145", "result": "> 100 µM (inactive)"}, {"measurement": "GI50", "setting": "EKVX", "result": "63.4 µM (inactive)"}, {"measurement": "GI50", "setting": "HCC 2998", "result": "> 100 µM (inactive)"}, {"measurement": "GI50", "setting": "HCT-116", "result": "55.1 µM (inactive)"}, {"measurement": "GI50", "setting": "HCT-15", "result": "> 100", "unit": "µM"}, {"measurement": "GI50", "setting": "HOP-62", "result": "> 100 µM (inactive)"}, {"measurement": "GI50", "setting": "HOP-92", "result": "97.1 µM (inactive)"}, {"measurement": "GI50", "setting": "HT-29", "result": "91.4 µM (inactive)"}, {"measurement": "GI50", "setting": "Hs-578T", "result": "> 100 µM (inactive)"}, {"measurement": "GI50", "setting": "IGROV-1", "result": "> 100 µM (inactive)"}, {"measurement": "GI50", "setting": "K562", "result": "34.2 µM (inactive)"}, {"measurement": "GI50", "setting": "KM12", "result": "> 100 µM (inactive)"}, {"measurement": "GI50", "setting": "LOX IMVI", "result": "63.7 µM (inactive)"}, {"measurement": "GI50", "setting": "M14", "result": "> 100 µM (inactive)"}, {"measurement": "GI50", "setting": "MCF7", "result": "79.1 µM (inactive)"}, {"measurement": "GI50", "setting": "MDA-MB-231", "result": "75.7 µM (inactive)"}, {"measurement": "GI50", "setting": "MDA-MB-435", "result": "> 100 µM (inactive)"}, {"measurement": "GI50", "setting": "MOLT-4", "result": "31.9 µM (inactive)"}, {"measurement": "GI50", "setting": "NCI-H23", "result": "> 100 µM (inactive)"}, {"measurement": "GI50", "setting": "NCI-H460", "result": "40.5 µM (inactive)"}, {"measurement": "GI50", "setting": "NCI-H522", "result": "47.4 µM (inactive)"}, {"measurement": "GI50", "setting": "NCI/ADR-RES", "result": "49 µM (inactive)"}, {"measurement": "GI50", "setting": "OVCAR-3", "result": "62.8 µM (inactive)"}, {"measurement": "GI50", "setting": "OVCAR-4", "result": "85.9 µM (inactive)"}, {"measurement": "GI50", "setting": "OVCAR-5", "result": "> 100 µM (inactive)"}, {"measurement": "GI50", "setting": "OVCAR-8", "result": "> 100 µM (inactive)"}, {"measurement": "GI50", "setting": "PC-3", "result": "57.4 µM (inactive)"}, {"measurement": "GI50", "setting": "RXF 393", "result": "> 100 µM (inactive)"}, {"measurement": "GI50", "setting": "SF-268", "result": "> 100 µM (inactive)"}, {"measurement": "GI50", "setting": "SF-295", "result": "> 100 µM (inactive)"}, {"measurement": "GI50", "setting": "SF-539", "result": "> 100 µM (inactive)"}, {"measurement": "GI50", "setting": "SK-MEL-28", "result": "> 100 µM (inactive)"}, {"measurement": "GI50", "setting": "SK-MEL-2", "result": "> 100 µM (inactive)"}, {"measurement": "GI50", "setting": "SK-MEL-5", "result": "32.2 µM (inactive)"}, {"measurement": "GI50", "setting": "SK-OV-3", "result": "> 100 µM (inactive)"}, {"measurement": "GI50", "setting": "SN12C", "result": "> 100 µM (inactive)"}, {"measurement": "GI50", "setting": "SNB-19", "result": "> 100 µM (inactive)"}, {"measurement": "GI50", "setting": "SNB-75", "result": "33.2 µM (inactive)"}, {"measurement": "GI50", "setting": "SW-620", "result": "> 100 µM (inactive)"}, {"measurement": "GI50", "setting": "T47D", "result": "45 µM (inactive)"}, {"measurement": "GI50", "setting": "TK-10", "result": "> 100 µM (inactive)"}, {"measurement": "GI50", "setting": "U-251", "result": "> 100 µM (inactive)"}, {"measurement": "GI50", "setting": "UACC-257", "result": "65.6 µM (inactive)"}, {"measurement": "GI50", "setting": "UACC-62", "result": "64 µM (inactive)"}, {"measurement": "GI50", "setting": "UO-31", "result": "64.6 µM (inactive)"}]}]}
